Results published in patent US10799522B2, “Compositions and methods relating to galectin detection” (Wayne State University, priority 2015, dated 2020).
“Also recorded” adds a separate entry of the source.

Columns and labels:
[1] = system: orthotopic human breast carcinoma xenograft (MCF10DCIS); assay: dynamic PET/CT imaging, pharmacokinetics and biodistribution in tumor-bearing mice; format: in vivo, immunedeficient nu/nu mice
Method: A single (unilateral) orthotopic breast carcinoma xenograft was established in immunedeficient nu/nu mice by injection of human breast ductal carcinoma in situ cells (MCF10DCIS) in Matrigel into one of the upper mammary fat pad.
Tumor-bearing mice (˜20-25 g) were anesthetized using inhalation of 2% isoflurane in oxygen, and their body temperature maintained at 38° C. by a heating pad with a feedback temperature control. […] Dynamic PET images were acquired in list-mode and reconstructed using OSEM algorithm at multiple time frames post radiotracer administration (0-2, 2-4, 4-6, 6-8, 8-10, 10-20, 20-30, 30-40, 40-50, 50-60 min). Thereafter, while still fixed to the positioning bed, the mice were moved with the bed into the gantry of INVEON SPECT/CT (Siemens), and CT images were acquired over the whole body area for attenuation correction of PET images and for production of PET/CT images. PET/CT fusion images were generated and analyzed in a similar manner as when studying rats.

[2] = dynamic PET/CT imaging, pharmacokinetics and biodistribution in a normal rat; format: in vivo, Sprague-Dawley rats
Method: Sprague-Dawley rats (males, ˜250 g) were anesthetized using inhalation of 2% isoflurane in oxygen, and their body temperature maintained at 37° C. by a heating pad with a feedback temperature control. […] Dynamic PET images were acquired in the list-mode and reconstructed using OSEM algorithm at multiple time frames post radiotracer administration (0-2, 2-4, 4-6, 6-8, 8-10, 10-20, 20-30, 30-40, 40-50, 50-60 min), followed by a whole body image that has been acquired using 3 consecutive bed positions, 5 min/bed position. Thereafter, while still fixed to the positioning bed, the rats were moved with the bed into the gantry of the INVEON SPECT/CT (Siemens) and CT images were acquired over the whole body area for attenuation correction of PET images and for production of PET/CT images. PET/CT fusion images were generated and analyzed using the AMIDE software version 1.0.4. […] The data was analyzed using GraphPad Prism version 6 (GraphPad Prism, Inc.) and pharmacokinetic parameters of clearance were calculated by fitting the resultant time-activity curves with exponential or bi-exponential functions.

[3] = tumor-bearing mice, i.v., bi-exponential clearance from the blood
[4] = tumor-bearing mice, mono-exponential kinetics
[5] = rats, i.v., bi-exponential clearance from the blood
[6] = rats, i.v., mono-exponential kinetics

For `OCC1OC(SC2OC(CO)C(O)C(n3cc(-c4cccc([18F])c4)nn3)C2O)C(O)C(n2cc(-c3cccc(F)c3)nn2)C1O` [[^18F]FPTDG, 3-(3-[^18F]fluorophenyltriazolyl)-3-deoxy-3′-(3-fluorophenyltriazolyl)-3′-deoxy-1-thio-β-D-digalactopyranoside], the “retention in MCF10DCIS xenografts” value ([1]; 20 to 60 min post i.v. injection) was “significant retention”, the “accumulation of radioactivity in normal mammary fat pads” value ([1]; mice, PET/CT) was “no accumulation of radioactivity was detectable” and the “accumulation or retention of radioactivity in the lungs, muscles, and other organs and tissues” value ([1]; mice, i.v.) was “extremely low”. For the same compound, the “crossing of the blood-brain barrier (radioactivity in the brain)” value ([1]; mice, i.v.) was “does not cross the blood-brain barrier (BBB) in mice either”, the magnitude of catabolism ([1]; mice, bone accumulation at 60 min post injection) was “negligible” and the “increased binding and accumulation in MCF10DCIS, as compared to normal breast tissue and muscle (Logan graphical analysis)” value ([1]; mice, muscle as reference tissue) was 2-3 fold. The renal clearance ([1]; mice, radioactivity in the bladder) was “more active in mice, as compared with rats”, the route of excretion ([1]; tumor-bearing mice, i.v.) was “predominantly via the hepatobiliary route of excretion” and the “blood fast clearance half-time” value [1, 3] was roughly 0.5 min. The “blood slow clearance half-time” value [1, 3] was roughly 10.5 min, the kidney clearance half-time [1, 4] was 37 min and the liver clearance half-time [1, 4] was roughly 120 min. The defluorination ([2]; [^18F]-fluoride radioactivity accumulation in the bone) was “Minimal, but detectable”, the “radioactivity levels in all major organs and tissues, including the liver and gall bladder” value ([2]; after 75 min post intravenous administration) was “very low” and the “primary radiation dose-limiting organs” value ([2]; based on dynamic PET/CT imaging results) was “liver and gall bladder; also recorded: liver and gallbladder”. The pharmacologic toxicity ([2]; radiotracer doses) was “No pharmacologic toxicity can be anticipated or actually observed; also recorded: No acute pharmacologic toxicity at radiotracer doses has been observed”, the “accumulation or retention of radioactivity in the lungs, muscles, and other organs and tissues” value ([2]; rats, i.v.) was “extremely low; also recorded: No substantial uptake or retention” and the “crossing of the blood-brain barrier (radioactivity in the brain)” value ([2]; rats, i.v.) was “does not cross the blood-brain barrier (BBB)”. The route of excretion ([2]; rats, i.v.) was “predominantly via the hepatobiliary route of excretion; also recorded: primarily excreted via the hepatobiliary route”, the “blood fast clearance half-time” value [2, 5] was 0.5 min and the “blood slow clearance half-time” value [2, 5] was 7.36 min. For the same compound, the kidney clearance half-time [2, 6] was 68 min, the liver clearance half-time [2, 6] was 53 min and the renal clearance ([2]; rats, i.v., radioactivity in the bladder) was “insignificant”. The magnitude of catabolism ([2]; rats, bone accumulation at 60-75 min post injection) was “negligible”.
